Measured values: patent publication US5792745A, “Use of peptides for altering bone resorption” (La Jolla Cancer Research Center, priority 1995, dated 1998)
Entries after “also recorded” stand apart in the source; their conditions may differ. Where a SMILES comes first, the peptide text is derived from it. Bridges are numbered along the chain shown (N, C = ends). [ ]: non-standard residue; d: D form. Tic = O=C(O)[C@@H]1Cc2ccccc2CN1; Mpa = O=C(O)CCS

Legend:
[1] = system: parathyroid hormone-induced hypercalcemia; test: parathyroid hormone-induced hypercalcemia in mice; format: in vivo; conditions: parathyroidectomized mice, 4 hr peptide infusion, FIG. 9
α5 β1 (FnR) = target: T1, α5 β1 (FnR) (Homo sapiens, UniProt P05556+P08648); test: α5 β1 ELISA (competitive); format: binding; conditions: comparison of ELISA values
T1 construct: Fibronectin receptor (FnR) was purified from 100 mM octyl-glucopyranoside-extracted human placenta; from tissue
Method: Peptide binding to purified human αv β5 and αv β3, which are VnR's, and to α5 β1, which is a FnR, was determined using competitive ELISA assays as described below. If desired, an αIIb β3 ELISA can be performed as described in W091/15515.
Peptide binding to purified human α5 β1 (FnR) also was determined using a competitive ELISA. In these assays, Fn was immobilized to the wells and the binding of solubilized FnR in the presence of various concentrations of a peptide analogue was determined using a mouse monoclonal antibody to human β1 (clone P4C10; Gibco) and specific binding was visualized using a second antibody.
Microtiter wells were coated at RT by adding 100 μl of 2 μg/ml human Fn in TBS and incubating the plates overnight at 4° C. Following incubation, the plates were washed 3× with TBS/"TWEEN 20" (polyoxyethylenesorbitan monolaurate). RGD peptides were diluted in TBS containing 20 mM OG and 2 mM MnCl2 and 50 μl was added to wells at 10-fold serial dilutions. FnR was diluted in the same buffer and 50 μl was added to each well.
The plates were incubated for 3 hr at RT and washed with 300 μl TBS/"TWEEN 20" (polyoxyethylenesorbitan monolaurate). Bound receptor was incubated with 100 μl of the monoclonal anti-β1 antibody for 2 hr, then washed 3× with TBS/"TWEEN 20" (polyoxyethylenesorbitan monolaurate). […] The amount of bound second antibody was determined as described above. […]

[2] = system: integrin receptors / osteoclasts; test: series of assays of Examples II and III for potency and selectivity (summary); conditions: for activity of minimal-element peptides (in words): FIG. 2
Excerpt: Peptides of the RGDNTic (SEQ ID NO: 31) pharmacophore group are characterized, in general, as having increased potency, whereas the peptides of the pharmacophore RGDDV (SEQ ID NO: 1) group generally have higher receptor selectivity. […] As used herein, the term "potency" or "potent" means that a peptide of the invention is active at a relatively low concentration in the assays described in Examples II and III. A potent peptide of the invention can be identified, for example, using the assays described in Examples II and III.
The present invention also provides a series of in vitro and in vivo assays useful for screening a panel of peptides in order to identify peptides that can reduce or inhibit bone resorption or that can alter integrin binding such as αv β3 integrin receptor-mediated binding. Such peptides can include, for example, peptides within the pharmacophore groups exemplified herein or peptides within other pharmacophore groups. The series of assays disclosed herein is particularly useful for determining the selectivity and potency of a peptide for reducing or inhibiting bone resorption. The selectivity of a peptide for an integrin receptor involved in osteoclast binding to bone can be determined, for example, using the integrin receptor assays and cell attachment and detachment assays described herein. Use of cell-based assays in conjunction with receptor-based assays is informative because the receptor ELISAs provide useful information regarding the binding characteristics of a particular peptide toward a particular integrin and because the cell-based assays confirm that those characteristics are relevant to the αv β3 receptor or to bone resorption.

αv β3 receptor = target: T2, αv β3 receptor (Homo sapiens, UniProt P05106+P06756); test: αv β3 ELISA (competitive); format: binding; conditions: ELISA / JY cell IC50 values of FIG. 2 compared
T2 construct: The αv β3 receptor was purified from octyl-glucopyranoside-extracted human placenta; from tissue
Method: Peptide binding to purified αv β3 receptor was determined by using a competitive ELISA, in which αv β3 receptor was immobilized and the binding of solubilized VN, in the presence of various concentrations of peptide analogue, was detected using a monoclonal mouse IgG anti-VN antibody and a labelled anti-mouse IgG conjugate.
50 μl of Vn in the same buffer then was added to each well.
The development process was stopped by adding 50 μl to 4N H2 SO4 to each well. The plates were read at 490 nm and the data analyzed by four parameter fit.

rat osteoclasts = test: rat osteoclast attachment assay compared with MG63 / NRK cell attachment; format: cell-based; conditions: FIGS. 7 and 8 compared
Method: 3. Rat osteoclast attachment assay
To determine the effect of a peptide on the attachment of rat osteoclasts in vitro, 100 μl aliquots of the rat pup bone cell suspension described in Example II.B.2., above, were added in triplicate to 96 well MAXISORP plates coated with specific substrates or with FCS. Substrate coated plates were used to determine the ability of peptides to inhibit attachment or induce detachment of an osteoclast from a ligand such as vitronectin, fibronectin, osteopontin or collagen I (Collaborative Research), which are ligands present in bone. Substrates were added to 96 well plates (50 μl of a 5-10 μg/ml solution in sodium carbonate, pH 9.5) and incubated for 2 hr at 37° C. For FCS control wells, 100 μl 10% FCS was added. Wells were aspirated, then washed 2× with PBS and blocked with 1% bovine serum albumin in PBS for 2 hr at 37° C. Wells were aspirated and washed again 2× with PBS. Cells were seeded in duplicate at 4×10^4 cells/well. […]
Following incubation, the medium and nonadherent cells were removed by aspiration from each well. […] Adherent osteoclasts were counted by light microscopy. […]
MG63 and NRK cell lines were purchased from ATTC (Rockville, Md.). […] Following staining, the stain was extracted with 20% acetic acid and the OD562 of the extracted stain was determined. […]
Selectivity of a peptide can be determined by comparing the results of FIGS. 7 and 8 (see, also FIG. 2).

chick osteoclasts = test: chick cell detachment assay (osteoclasts vs total cells); format: cell-based; conditions: FIG. 5
bone resorption = conditions: cited from earlier work
osteoclasts = conditions: cited from earlier work
neointimal hyperplasia = conditions: rabbit, in vivo; cited from earlier work

## CC(C)[C@@H]1NC(=O)[C@H](CC(=O)O)NC(=O)[C@H](CC(=O)O)NC(=O)CNC(=O)[C@H](CCCNC(=N)N)NC(=O)CCSSC[C@@H](C(N)=O)NC1=O [compound 191] ([Mpa]RGDDVC-NH2; disulfide 1-7)
[1]
  PTH-induced change in serum ionized calcium: decreased the PTH-induced rise in serum ionized calcium in a dose responsive manner

## C[C@@H]1NC(=O)[C@H](CCCNC(=N)N)NC(=O)CNC(=O)CC[C@@H](C(N)=O)NC(=O)[C@@H]2CCCN2C(=O)[C@H](CC(N)=O)NC(=O)[C@H](CC(=O)O)NC(=O)CNC(=O)[C@H](CCCNC(=N)N)NC1=O [compound 390] (GRARGDNPE-NH2; lactam N-9)
α5 β1 (FnR)
  receptor selectivity for α5 β1 versus αv β5: more selective toward α5 β1 than toward αv β5

## CC(=O)N[C@H]1CSSC[C@@H](C(N)=O)NC(=O)[C@@H]2Cc3ccccc3CN2C(=O)[C@H](CO)NC(=O)[C@H](CC(=O)O)NC(=O)CNC(=O)[C@H](CCCNC(=N)N)NC1=O [compound 812, Ac-CRGDS(Tic)C-NH2] (Ac-CRGDS[Tic]C-NH2; disulfide 1-7)
[2]
  activity of minimal-element peptides (in words): demonstrate activity

## N=C(N)NCCC[C@@H]1NC(=O)CC[C@@H](C(N)=O)NC(=O)[C@@H]2CCCN2C(=O)[C@H](CO)NC(=O)[C@H](CC(=O)O)NC(=O)CNC1=O [compound 825] (RGDSPE-NH2; lactam N-6)
α5 β1 (FnR)
  receptor selectivity for α5 β1 versus αv β5: more selective toward α5 β1 than toward αv β5

## CC(C)[C@@H]1NC(=O)[C@H](CC(=O)O)NC(=O)[C@H](CC(=O)O)NC(=O)CNC(=O)[C@H](CCCNC(=N)N)NC(=O)CNC(=O)C[C@@H](C(N)=O)NC1=O [peptide 368] (GRGDDVD-NH2; lactam N-7)
αv β3 receptor
  receptor selectivity for αv β3 versus αv β5 and α5 β1 (comparison of IC50 values): receptor selective for αv β3; also recorded: selective peptide
[2]
  both potent and selective (summary classification): both potent and selective
  receptor selectivity (summary classification): particularly receptor selective

## CC(C)[C@@H]1NC(=O)[C@H](CC(=O)O)NC(=O)[C@H](CC(=O)O)NC(=O)CNC(=O)[C@H](CCCNC(=N)N)NC(=O)CC[C@@H](C(N)=O)NC1=O [peptide 386, RGDDVE-NH2] (RGDDVE-NH2; lactam N-6)
Rat osteoclasts
  selectivity: osteoclast attachment versus MG63 or NRK attachment: selective
Chick osteoclasts
  selective detachment of osteoclasts versus other cell types: caused selective detachment of osteoclasts as compared to other cell types
[1]
  PTH-induced change in serum ionized calcium: relatively low level of serum calcium
[2]
  activity of minimal-element peptides (in words): demonstrate activity

## Echistatin
Bone resorption
  inhibition of bone resorption in vivo (literature): inhibits bone resorption
osteoclasts
  binding to osteoclasts (literature): binds to osteoclasts in a nonselective manner
osteoclasts; in vitro
  inhibition of bone resorption in vitro (literature): inhibits bone resorption in vitro

## G(Pen)GRGDSPCA
Neointimal hyperplasia
  inhibition of neointimal hyperplasia (literature): can inhibit neointimal hyperplasia
